# Experimental data as given in ChEMBL document CHEMBL1201862, “PubChem BioAssay data set” (2004).
#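 Compound exposure: 48 hours, 5 concentrations, 96-well plates. The concentration for 50% growth inhibition is given as GI50.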 Activity calls are given as the source filed them. No stated cut-off is given here; in the data, active = GI50 up to about 1.1 µM and inactive = higher.
# Key:
# Assay in all cases: NCI tumour cell line growth inhibition, 48 h
# OVCAR-3 = system: OVCAR-3
# CAKI-1 = system: CAKI-1
# SN12C = system: SN12C
# A549 = system: A549
# RXF 393 = system: RXF 393
# NCI-H226 = system: NCI-H226
# UACC-257 = system: UACC-257
# SF-268 = system: SF-268
# LOX IMVI = system: LOX IMVI
# SK-MEL-2 = system: SK-MEL-2
# M14 = system: M14
# HCC 2998 = system: HCC 2998
# M19-MEL = system: M19-MEL
# PC-3 = system: PC-3
# SNB-19 = system: SNB-19
# MDA-N = system: MDA-N
# MDA-MB-231 = system: MDA-MB-231
# SK-OV-3 = system: SK-OV-3
# T47D = system: T47D
# DMS-273 = system: DMS-273
SMILES,GI50 (OVCAR-3),GI50 (CAKI-1),GI50 (SN12C),GI50 (A549),GI50 (RXF 393),GI50 (NCI-H226),GI50 (UACC-257),GI50 (SF-268),GI50 (LOX IMVI),GI50 (SK-MEL-2),GI50 (M14),GI50 (HCC 2998),GI50 (M19-MEL),GI50 (PC-3),GI50 (SNB-19),GI50 (MDA-N),GI50 (MDA-MB-231),GI50 (SK-OV-3),GI50 (T47D),GI50 (DMS-273)
O=C1CCC2(c3ccc(F)cc3)Nc3ncccc3N12 (stereo not given),> 100 µM (inactive),> 100 µM (inactive),> 100 µM (inactive),> 100 µM (inactive),> 100 µM (inactive),> 100 µM (inactive),> 100 µM (inactive),> 100 µM (inactive),> 100 µM (inactive),> 100 µM (inactive),> 100 µM (inactive),> 100 µM (inactive),> 100 µM (inactive),,,,,,,
C=CCN1CN(C2CCCCC2)CSC1=S,7.01 µM (inactive),4.72 µM (inactive),6.84 µM (inactive),16.5 µM (inactive),4.04 µM (inactive),14.6 µM (inactive),3.68 µM (inactive),2.32 µM (inactive),3.9 µM (inactive),8.18 µM (inactive),2.77 µM (inactive),8.17 µM (inactive),,5.02 µM (inactive),16.9 µM (inactive),2.16 µM (inactive),15.5 µM (inactive),14.4 µM (inactive),0.883 µM (active),
Cc1cc(=O)n(-c2cc3cccccc-3n2)[nH]1,3.05 µM (inactive),,5.74 µM (inactive),12.4 µM (inactive),2.36 µM (inactive),12.1 µM (inactive),5.15 µM (inactive),,9.64 µM (inactive),,4.42 µM (inactive),12.1 µM (inactive),3.95 µM (inactive),,43.6 µM (inactive),,,6.31 µM (inactive),,
COc1ccc(/C(Cl)=C(\C=O)c2ccc([N+](=O)[O-])cc2)cc1,18.4 µM (inactive),11.1 µM (inactive),12.3 µM (inactive),17.7 µM (inactive),11.5 µM (inactive),14.1 µM (inactive),10.1 µM (inactive),20.5 µM (inactive),3.49 µM (inactive),6.98 µM (inactive),11.8 µM (inactive),21 µM (inactive),,,18.5 µM (inactive),,,33 µM (inactive),,20 µM (inactive)
CCCC/C=C1\CCC(CN2CCCCC2)C1=O (stereo not given),29.8 µM (inactive),9.48 µM (inactive),11.5 µM (inactive),33.3 µM (inactive),10.9 µM (inactive),26.5 µM (inactive),24.9 µM (inactive),32.1 µM (inactive),> 28.9 µM (inactive),> 39 µM (inactive),10.1 µM (inactive),8.67 µM (inactive),8.36 µM (inactive),> 100 µM (inactive),31.7 µM (inactive),> 100 µM (inactive),> 100 µM (inactive),> 42.1 µM (inactive),> 100 µM (inactive),
Nc1nc(Br)nc2ncn(C3CC(O)C(CO)O3)c12 (stereo not given),> 100 µM (inactive),16 µM (inactive),10 µM (inactive),18 µM (inactive),> 100 µM (inactive),> 68.1 µM (inactive),> 100 µM (inactive),> 100 µM (inactive),> 72.9 µM (inactive),> 100 µM (inactive),3.05 µM (inactive),> 60.8 µM (inactive),,> 100 µM (inactive),42.2 µM (inactive),> 68.7 µM (inactive),> 100 µM (inactive),> 100 µM (inactive),> 100 µM (inactive),
C[C@@]12C[C@@H](c3ccccc3O1)N1CCCCSC1=N2,> 100 µM (inactive),> 100 µM (inactive),> 100 µM (inactive),,> 100 µM (inactive),> 100 µM (inactive),> 100 µM (inactive),> 100 µM (inactive),> 100 µM (inactive),> 100 µM (inactive),> 100 µM (inactive),> 100 µM (inactive),,> 100 µM (inactive),> 100 µM (inactive),> 100 µM (inactive),> 100 µM (inactive),> 100 µM (inactive),> 100 µM (inactive),
CCCCCCC(=O)C/C(=N/NC(N)=S)C(=O)NC1C2CC3CC(C2)CC1C3 (stereo not given),> 100 µM (inactive),,> 100 µM (inactive),> 100 µM (inactive),> 100 µM (inactive),> 100 µM (inactive),> 100 µM (inactive),> 100 µM (inactive),> 100 µM (inactive),> 100 µM (inactive),> 100 µM (inactive),> 100 µM (inactive),> 100 µM (inactive),,> 100 µM (inactive),,,,,
Oc1ccc(-c2nc(-c3ccc4ccccc4n3)c(-c3ccc(F)cc3)[nH]2)cc1,6.19 µM (inactive),13.6 µM (inactive),15.3 µM (inactive),11.6 µM (inactive),15.2 µM (inactive),14.2 µM (inactive),13.5 µM (inactive),13 µM (inactive),10.6 µM (inactive),14.5 µM (inactive),11 µM (inactive),3.94 µM (inactive),,9.08 µM (inactive),17.3 µM (inactive),11.9 µM (inactive),18.5 µM (inactive),15.3 µM (inactive),7.11 µM (inactive),
Cc1cn(CC2=NCCN2)c(=O)[nH]c1=O,,> 100 µM (inactive),> 100 µM (inactive),> 100 µM (inactive),> 100 µM (inactive),> 100 µM (inactive),> 100 µM (inactive),> 100 µM (inactive),> 100 µM (inactive),> 100 µM (inactive),> 100 µM (inactive),> 100 µM (inactive),,> 100 µM (inactive),> 100 µM (inactive),> 100 µM (inactive),> 100 µM (inactive),> 100 µM (inactive),> 100 µM (inactive),
C[C@@]1(CO)[C@H](O)CC[C@@]2(C)[C@H]1CC[C@H]1C[C@@H]3C[C@@]12CC[C@@]3(O)COC(=O)CN,58.3 µM (inactive),0.762 µM (active),,,,,33.9 µM (inactive),9.29 µM (inactive),5.57 µM (inactive),64.9 µM (inactive),5.15 µM (inactive),4.23 µM (inactive),,21.3 µM (inactive),,16.9 µM (inactive),34.8 µM (inactive),39.4 µM (inactive),11.4 µM (inactive),0.486 µM (active)
O=c1[nH]c(=O)n(C2OC(CO)C(O)C2O)cc1OCCc1ccccc1 (stereo not given),> 100 µM (inactive),> 100 µM (inactive),> 100 µM (inactive),> 100 µM (inactive),> 100 µM (inactive),> 100 µM (inactive),> 100 µM (inactive),> 100 µM (inactive),> 100 µM (inactive),> 100 µM (inactive),> 100 µM (inactive),> 100 µM (inactive),,> 100 µM (inactive),> 100 µM (inactive),> 100 µM (inactive),> 100 µM (inactive),> 100 µM (inactive),> 100 µM (inactive),
CCN(CC)c1ncnc2c1ncn2CCNC(CO)(CO)CO,> 100 µM (inactive),> 100 µM (inactive),> 100 µM (inactive),> 100 µM (inactive),> 100 µM (inactive),> 100 µM (inactive),> 100 µM (inactive),> 100 µM (inactive),> 100 µM (inactive),> 100 µM (inactive),> 100 µM (inactive),> 100 µM (inactive),,> 100 µM (inactive),> 100 µM (inactive),> 100 µM (inactive),> 100 µM (inactive),> 100 µM (inactive),> 100 µM (inactive),
CCOC(=O)c1c(C)n(-c2ccc(C)cc2)c2c1cc(O)c1[nH]c3c(c12)CCCC3,12.9 µM (inactive),27.9 µM (inactive),27.5 µM (inactive),18.8 µM (inactive),12 µM (inactive),23.8 µM (inactive),21.2 µM (inactive),17.5 µM (inactive),14.4 µM (inactive),12.4 µM (inactive),16.6 µM (inactive),14.6 µM (inactive),,12.9 µM (inactive),19.4 µM (inactive),20.6 µM (inactive),20 µM (inactive),87.3 µM (inactive),20.9 µM (inactive),
CCCCCC/C=C1\CCC(CN2CCOCC2)C1=O (stereo not given),18.5 µM (inactive),16.8 µM (inactive),17.2 µM (inactive),> 45.1 µM (inactive),,16 µM (inactive),15.1 µM (inactive),19.6 µM (inactive),10.2 µM (inactive),18.7 µM (inactive),14.6 µM (inactive),19.2 µM (inactive),,,18.6 µM (inactive),,,35.8 µM (inactive),,15.9 µM (inactive)
O/N=N/c1ccccn1.OCC1OC2OC3C(CO)OC(OC4C(CO)OC(OC5C(CO)OC(OC6C(CO)OC(OC7C(CO)OC(OC1C(O)C2O)C(O)C7O)C(O)C6O)C(O)C5O)C(O)C4O)C(O)C3O (stereo not given),40.8 µM (inactive),> 100 µM (inactive),> 100 µM (inactive),> 100 µM (inactive),> 100 µM (inactive),> 100 µM (inactive),71.1 µM (inactive),> 100 µM (inactive),57.3 µM (inactive),56.9 µM (inactive),30.8 µM (inactive),> 100 µM (inactive),,65.3 µM (inactive),63.7 µM (inactive),19.9 µM (inactive),> 100 µM (inactive),> 100 µM (inactive),> 100 µM (inactive),
COc1cccc2c1C(=O)c1c(O)c3c(c(O)c1C2=O)C[C@@](O)(C(=O)CO)CC3OC1CC(NCCOCC(OC(C)=O)OC(C)=O)C(O)C(C)O1 (stereo not given in full),< 0.01 µM (active),0.01 µM (active),< 0.01 µM (active),< 0.01 µM (active),< 0.01 µM (active),< 0.01 µM (active),< 0.01 µM (active),< 0.01 µM (active),0.00598 µM (active),< 0.01 µM (active),< 0.01 µM (active),< 0.01 µM (active),< 0.01 µM (active),,0.00782 µM (active),,,< 0.01 µM (active),,
